Results on one compound are retold here after patent publication US9067989B2, “Eotaxin-2 (CCL24) inhibitors in inflammatory, autoimmune, and cardiovascular disorders” (THE MEDICAL RESEARCH, INFRASTRUCTURE, AND HEALTH SERVICES …, priority 2009, dated 2015).

This assay relates to adjuvant induced arthritis. The assay is described as follows: Adjuvant induced arthritis in Lewis rats. In kind it is in vivo, rat. As to conditions: D8 100 μg 3x/week, methotrexate 0.25 mg/kg once weekly, from day 3, compared to PBS. As for the experimental part: Adjuvant arthritis was induced in Lewis rats (six-week-old male Lewis rats obtained from Harlan, Israel) by injection of […]. […] was prepared by suspending heat-killed Mycobacterium Tuberculosis (Difco, Detroit, Mich.) in mineral oil at 10 mg/ml. Rats were injected intradermally with 100 μl adjuvant at the base of the tail. Arthritis developed by day 10 post injection.
Rats (8 per group) were treated by intraperitoneal (IP) injection with 3 monoclonal antibodies against eotaxin-2, (G7, G8, D8) 3×/week. Controls were treated with total mouse (non specific) IgG or PBS. Injections were started on the third day after adjuvant administration and were performed three times a week until the rats were sacrificed. […]
Arthritis severity was evaluated by measuring body weight, paw swelling, arthritic score and whole animal mobility. […]
Body weight in grams was measured every other day as an indicator of systemic inflammation.
Evaluation of Paw swelling. Ankle and wrist diameter in mm (to one place after the decimal point) were recorded three times a week using a caliper. […]
Finger and toe swelling was recorded according to their partial contribution: Ankles (feet): each toe scored 0.2; Wrist: each finger scored 0.25 Sum of all joints was calculated.
Whole animal Mobility was scored between 0-4, according to the following definitions: […]

Turning to `CN(Cc1cnc2nc(N)nc(N)c2n1)c1ccc(C(=O)N[C@@H](CCC(=O)O)C(=O)O)cc1` [methotrexate], the “protection against development of arthritis (arthritic score), prevention mode” value is given as “significant, comparable protection”. Besides, the “protection against development of arthritis (arthritic score), prevention mode” value (listed as MTX) is “statistically significant effect (p<0.05)”.
